Toxic doses and inconclusive results are not listed.
Tested on: L1210 leukemia ip in BDF1 mice, survival T/C
Experiment: NCI In Vivo Anticancer Drug Screen. Data for tumor model L1210 Leukemia (intraperitoneal) in B6D2F1 (BDF1) mice
Settings: endpoint: mean survival time, higher = longer survival
Procedure, shortened: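 In this screen, tumor-bearing mice given compound are compared to those given vehicle, and their survival values are reported as a treated-to-control quotient.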

[1] = dose: 100.0 mg/kg/injection, schedule: Q01DX001 (ip), vehicle: saline
[2] = dose: 200.0 mg/kg/injection, schedule: Q01DX001 (ip), vehicle: saline
[3] = dose: 400.0 mg/kg/injection, schedule: Q01DX001 (ip), vehicle: saline
[4] = dose: 100.0 mg/kg/injection, schedule: Q01DX009 (ip), vehicle: saline with Tween-80
[5] = dose: 100.0 mg/kg/injection, schedule: Q04DX003 (ip), vehicle: saline with Tween-80
[6] = dose: 200.0 mg/kg/injection, schedule: Q01DX009 (ip), vehicle: saline with Tween-80
[7] = dose: 200.0 mg/kg/injection, schedule: Q04DX003 (ip), vehicle: saline with Tween-80
[8] = dose: 400.0 mg/kg/injection, schedule: Q01DX009 (ip), vehicle: saline with Tween-80
[9] = dose: 400.0 mg/kg/injection, schedule: Q04DX003 (ip), vehicle: saline with Tween-80
[10] = dose: 100.0 mg/kg/injection, schedule: Q01DX001 (ip), vehicle: Klucel (hydroxypropylcellulose) (HPC)
[11] = dose: 200.0 mg/kg/injection, schedule: Q01DX001 (ip), vehicle: Klucel (hydroxypropylcellulose) (HPC)
[12] = dose: 100.0 mg/kg/injection, schedule: Q01DX001 (ip), vehicle: carboxymethylcellulose (CMC)
[13] = dose: 200.0 mg/kg/injection, schedule: Q01DX001 (ip), vehicle: carboxymethylcellulose (CMC)
[14] = dose: 400.0 mg/kg/injection, schedule: Q01DX001 (ip), vehicle: carboxymethylcellulose (CMC)
[15] = dose: 150.0 mg/kg/injection, schedule: Q01DX001 (ip), vehicle: saline
[16] = dose: 100.0 mg/kg/injection, schedule: Q04DX003 (ip), vehicle: Klucel (hydroxypropylcellulose) (HPC)
[17] = dose: 200.0 mg/kg/injection, schedule: Q04DX003 (ip), vehicle: Klucel (hydroxypropylcellulose) (HPC)
[18] = dose: 400.0 mg/kg/injection, schedule: Q04DX003 (ip), vehicle: Klucel (hydroxypropylcellulose) (HPC)

CC(=O)C1CC2C=CCC(C2)C1 (stereo unspecified)
T/C (dose: 100.0 mg/kg/injection, schedule: Q01DX001 (ip), vehicle: saline with Tween-80): 95 % of control
T/C (dose: 200.0 mg/kg/injection, schedule: Q01DX001 (ip), vehicle: saline with Tween-80): 90 % of control
T/C (dose: 400.0 mg/kg/injection, schedule: Q01DX001 (ip), vehicle: saline with Tween-80): 96 % of control

Cc1cc(C)c(CCN(C)C)c(C)c1C
T/C (dose: 50.0 mg/kg/injection, schedule: Q01DX001 (ip), vehicle: saline): 103 % of control
T/C [1]: 101 % of control
T/C [2]: 101 % of control

O=C(Nc1ccc(Cl)cc1)OCCN(CCOC(=O)Nc1ccc(Cl)cc1)Cc1ccccc1
T/C [1]: 101 % of control
T/C [2]: 95 % of control
T/C [3]: 95 % of control

O=[N+]([O-])c1ccc2c(c1)-c1[nH]c3ccccc3c1CS2
T/C (dose: 100.0 mg/kg/injection, schedule: Q01DX001 (ip), vehicle: acetone): 100 % of control
T/C (dose: 200.0 mg/kg/injection, schedule: Q01DX001 (ip), vehicle: acetone): 92 % of control
T/C (dose: 400.0 mg/kg/injection, schedule: Q01DX001 (ip), vehicle: acetone): 92 % of control

CC(=O)Nc1cccc2c1C(=O)OC2=O
T/C [4]: 105 % of control
T/C [5]: 102 % of control
T/C [6]: 89 % of control
T/C [7]: 99 % of control
T/C [8]: 93 % of control
T/C [9]: 94 % of control

O=S(=O)(/N=c1/ccc(NS(=O)(=O)c2ccccc2)cn1O)c1ccccc1
T/C (dose: 50.0 mg/kg/injection, schedule: Q01DX001 (ip), vehicle: Klucel (hydroxypropylcellulose) (HPC)): 96 % of control
T/C [10]: 102 % of control
T/C [11]: 98 % of control

N#CC1(c2ccccc2)CCCCC1
T/C [12]: 96 % of control
T/C [13]: 89 % of control
T/C [14]: 94 % of control

CC(=O)c1ccc2c(c1)Cc1cc(Br)ccc1-2
T/C [12]: 97 % of control
T/C [13]: 89 % of control
T/C [14]: 97 % of control

COc1ccc(C2=CCCCC2)cc1
T/C [4]: 97 % of control
T/C [5]: 105 % of control
T/C [6]: 91 % of control
T/C [7]: 110 % of control
T/C [8]: 94 % of control
T/C [9]: 103 % of control

COC(=O)C1(C)COP(=O)(Nc2ccc(OC)cc2)OC1 (stereo unspecified)
T/C [1]: 89 % of control
T/C [2]: 89 % of control

C(#CCN1CCCCC1)CN1CCCCC1
T/C (dose: 75.0 mg/kg/injection, schedule: Q01DX001 (ip), vehicle: saline): 105 % of control
T/C [15]: 103 % of control
T/C (dose: 300.0 mg/kg/injection, schedule: Q01DX001 (ip), vehicle: saline): 101 % of control

O=C(O)CC(C(=O)O)(c1c[nH]c2ccccc12)c1c[nH]c2ccccc12
T/C (dose: 75.0 mg/kg/injection, schedule: Q01DX001 (ip), vehicle: carboxymethylcellulose (CMC)): 89 % of control
T/C (dose: 150.0 mg/kg/injection, schedule: Q01DX001 (ip), vehicle: carboxymethylcellulose (CMC)): 93 % of control
T/C (dose: 300.0 mg/kg/injection, schedule: Q01DX001 (ip), vehicle: carboxymethylcellulose (CMC)): 90 % of control

S=c1cc(-c2ccco2)ss1
T/C [4]: 93 % of control
T/C [5]: 90 % of control
T/C [6]: 91 % of control
T/C [7]: 95 % of control
T/C [8]: 90 % of control
T/C [9]: 96 % of control

N#Cc1c(N)n(C2OC(CO)C(O)C2O)c2ncnc(N)c12 (stereo unspecified)
T/C (dose: 1.0 mg/kg/injection, schedule: Q01DX005 (ip), vehicle: saline): 115 % of control
T/C (dose: 2.0 mg/kg/injection, schedule: Q01DX005 (ip), vehicle: saline): 120 % of control

C/C=C(/C)C(=O)O[C@H]1CC[C@@]2(C)[C@@H]3CC[C@H]4[C@]5(O)C[C@H](O)[C@@]6(O)[C@@H](CN7C[C@@H](C)CC[C@H]7[C@@]6(C)O)[C@]5(O)C[C@@]42O[C@@]13O
T/C (dose: 0.5 mg/kg/injection, schedule: Q01DX001 (ip), vehicle: saline): 95 % of control
T/C (dose: 1.0 mg/kg/injection, schedule: Q01DX001 (ip), vehicle: saline): 98 % of control
T/C (dose: 1.5 mg/kg/injection, schedule: Q04DX003 (ip), vehicle: saline with Tween-80): 102 % of control
T/C (dose: 2.0 mg/kg/injection, schedule: Q01DX001 (ip), vehicle: saline): 95 % of control
T/C (dose: 4.0 mg/kg/injection, schedule: Q01DX001 (ip), vehicle: saline): 101 % of control
T/C (dose: 5.0 mg/kg/injection, schedule: Q01DX001 (ip), vehicle: saline): 95 % of control

O=C(Nc1ccccc1F)c1ccc(C(=O)Nc2ccccc2F)cc1
T/C (dose: 12.5 mg/kg/injection, schedule: Q01DX009 (ip), vehicle: saline with Tween-80): 92 % of control
T/C (dose: 25.0 mg/kg/injection, schedule: Q01DX009 (ip), vehicle: saline with Tween-80): 86 % of control
T/C (dose: 50.0 mg/kg/injection, schedule: Q01DX009 (ip), vehicle: saline with Tween-80): 90 % of control
T/C [5]: 90 % of control
T/C [7]: 87 % of control

CC(CCOS(C)(=O)=O)OS(C)(=O)=O (stereo unspecified)
T/C [5]: 112 % of control
T/C [7]: 107 % of control
T/C [9]: 88 % of control

N/N=C/c1cc2ccccc2c2ccccc12
T/C (dose: 100.0 mg/kg/injection, schedule: Q04DX002 (ip), vehicle: Klucel (hydroxypropylcellulose) (HPC)): 97 % of control
T/C (dose: 200.0 mg/kg/injection, schedule: Q04DX002 (ip), vehicle: Klucel (hydroxypropylcellulose) (HPC)): 91 % of control
T/C (dose: 400.0 mg/kg/injection, schedule: Q04DX002 (ip), vehicle: Klucel (hydroxypropylcellulose) (HPC)): 87 % of control

OCC1OC(n2cnc3c(NO)nc(NO)nc32)C(O)C1O (stereo unspecified)
T/C (dose: 30.0 mg/kg/injection, schedule: Q01DX009 (ip), vehicle: saline): 151 % of control
T/C [15]: 115 % of control

O=C(CN1CCOCC1)N1CCN(C(=O)CN2CCOCC2)CC1
T/C (dose: 50.0 mg/kg/injection, schedule: Q01DX001 (ip), vehicle: carboxymethylcellulose (CMC)): 92 % of control
T/C [12]: 97 % of control
T/C [13]: 95 % of control
T/C [14]: 101 % of control

COC(=O)C1C(C(=O)OC)C2(Cl)C(Cl)=C(Cl)C1(Cl)C2(Br)Br (stereo unspecified)
T/C [10]: 101 % of control
T/C (dose: 100.0 mg/kg/injection, schedule: Q01DX009 (ip), vehicle: Klucel (hydroxypropylcellulose) (HPC)): 104 % of control
T/C [16]: 104 % of control
T/C [11]: 104 % of control
T/C (dose: 200.0 mg/kg/injection, schedule: Q01DX009 (ip), vehicle: Klucel (hydroxypropylcellulose) (HPC)): 101 % of control
T/C [17]: 100 % of control
T/C (dose: 400.0 mg/kg/injection, schedule: Q01DX001 (ip), vehicle: Klucel (hydroxypropylcellulose) (HPC)): 97 % of control
T/C (dose: 400.0 mg/kg/injection, schedule: Q01DX009 (ip), vehicle: Klucel (hydroxypropylcellulose) (HPC)): 97 % of control
T/C [18]: 104 % of control

COC1CCC(OC)(C(=O)NN)O1 (stereo unspecified)
T/C [1]: 95 % of control
T/C [2]: 95 % of control
T/C [3]: 102 % of control

O=c1c2ccccc2nc(-c2ccccc2)n1O
T/C [16]: 103 % of control
T/C [17]: 106 % of control
T/C [18]: 91 % of control

COc1cc(C=Nc2ccc(C)c(Cl)c2)ccc1OC(=O)c1ccccc1
T/C (dose: 100.0 mg/kg/injection, schedule: Q04DX002 (ip), vehicle: saline with Tween-80): 96 % of control
T/C (dose: 200.0 mg/kg/injection, schedule: Q04DX002 (ip), vehicle: saline with Tween-80): 93 % of control
T/C (dose: 400.0 mg/kg/injection, schedule: Q04DX002 (ip), vehicle: saline with Tween-80): 104 % of control

O=S(=O)(O)c1cc(O)c2cc(Nc3ccccc3)ccc2c1
T/C (dose: 50.0 mg/kg/injection, schedule: Q01DX009 (ip), vehicle: saline): 96 % of control
T/C (dose: 100.0 mg/kg/injection, schedule: Q01DX009 (ip), vehicle: saline): 93 % of control
T/C (dose: 100.0 mg/kg/injection, schedule: Q04DX003 (ip), vehicle: saline): 89 % of control
T/C (dose: 200.0 mg/kg/injection, schedule: Q01DX009 (ip), vehicle: saline): 102 % of control
T/C (dose: 200.0 mg/kg/injection, schedule: Q04DX003 (ip), vehicle: saline): 100 % of control

COc1cccc(CCNC(=O)CCC#N)c1
T/C (dose: 75.0 mg/kg/injection, schedule: Q01DX009 (ip), vehicle: saline): 112 % of control
T/C [16]: 97 % of control
T/C (dose: 150.0 mg/kg/injection, schedule: Q01DX009 (ip), vehicle: saline): 93 % of control
T/C [17]: 87 % of control
T/C (dose: 300.0 mg/kg/injection, schedule: Q01DX009 (ip), vehicle: saline): 100 % of control
T/C [18]: 90 % of control

From PubChem BioAssay AID248 (DTP/NCI, 2004)
